Literature values as cited in patent US20060024236A1, “Bowel preparation for virtual colonoscopy” (priority 2004, published 2006).

Key:
[1] = compared with PEG
[2] = compared with PEG, cleansing before CC, meta-analysis of trials

Structure (SMILES) | residual colonic fluid at VC [1] | efficacy of colonic cleansing [2] | tolerability of oral cleansing agent [2] | opacification of residual colonic fluid (oral) | tagging of residual fecal material to distinguish it from true colonic polyps (oral, given as part of the colon prep) | interference with subsequent CC examination (orally administered)
O=P(O)(O)O [NaP, sodium phosphate] | significantly less residual colonic fluid | more efficacious | better tolerated |  |  | 
O=S(=O)([O-])[O-].[Ba+2] [barium sulfate] |  |  |  | does not adequately opacify | effective | does not interfere
